Key:
A. baumannii = test: MIC against A. baumannii; type: cell-based, Acinetobacter baumannii; settings: Gram-negative; measured in duplicate
E. faecium = test: MIC against E. faecium; type: cell-based, Enterococcus faecium; settings: Gram-positive; measured in duplicate
K. pneumoniae = test: MIC against K. pneumoniae; type: cell-based, Klebsiella pneumoniae; settings: Gram-negative; measured in duplicate
S. aureus = test: MIC against S. aureus; type: cell-based, Staphylococcus aureus; settings: Gram-positive; measured in duplicate
E. cloacae = test: MIC against E. cloacae; type: cell-based; settings: Gram-negative; measured in duplicate
E. coli = test: MIC against E. coli; type: cell-based, Escherichia coli; settings: Gram-negative; measured in duplicate
P. aeruginosa = test: MIC against P. aeruginosa; type: cell-based, Pseudomonas aeruginosa; settings: Gram-negative; measured in duplicate
VRE clinical isolates = test: MIC against VRE clinical isolates; type: cell-based, Vancomycin-resistant Enterococcus; settings: Figure 3, Table S9
MDR S. aureus strains = test: MIC against MDR S. aureus strains; type: cell-based; settings: Figure 3, Table S9

Row | Substance | MIC A. baumannii (A. baumannii) | MIC E. faecium (E. faecium) | MIC K. pneumoniae (K. pneumoniae) | MIC S. aureus (S. aureus) | MIC E. cloacae (E. cloacae) | MIC E. coli (E. coli) | MIC P. aeruginosa (P. aeruginosa) | MIC against VRE clinical isolates (VRE clinical isolates) | MIC against MDR S. aureus strains (MDR S. aureus strains)
1 | Laterocidine | 0.5 µg/mL | >128 µg/mL | 2 µg/mL | >128 µg/mL | 1 µg/mL | 0.5 µg/mL | 2 µg/mL | – | –
2 | Paenibacterin | 8 µg/mL | 8 µg/mL | 8 µg/mL | 16 µg/mL | 4 µg/mL | 4 µg/mL | 8 µg/mL | – | –
3 | Tridecaptin A | 4 µg/mL | 64 µg/mL | 1 µg/mL | 128 µg/mL | 2 µg/mL | 1 µg/mL | 64 µg/mL | 128 µg/mL | 128 µg/mL

From PMC10234496 (Organic letters, 2022)
